Source: patent publication EP0087397A2, “Propionylglycine derivative, process for its preparation and therapeutic compositions which contain it as the active principle” (Farmatis S.r.l., priority 1982, dated 1983)
Counter-ions that a name gives are not always drawn. Like-named read-outs stand apart in the source and are kept apart here.

How the values were obtained:
DIFCO gastric mucin = experiment: Mucolytic activity on gastric mucin (in vitro, Ostwald viscosimeter); type: biochemical; details: for Residual Viscosity in %: 5 minutes at 25°C, average of six readings, % of initial viscosity
Procedure: The mucolytic activity was measured using DIFCO gastric mucin (10 g dissolved in 100 ml of phyaiological solution).
(§1) The mucolytic compounds under test were incubated for 5 minutes at 25°C under constant agitation, mixing 1 ml of aqueous solution of product, having increasing molar quantities of the product being considered, with 10 ml of mucin. The viscosity was measured both before and after incubation, using an Ostwald viscosimeter with 1.5 mm capillaries. […] Each value represents the average of six readings.

[1] = system: bronchial hypersecretion induced in rats using S02; experiment: In vivo mucolytic activity: bronchial hypersecretion induced by SO2; details: for number of rats which developed bronchial obstruction, expressed as a percentage of the animals not protected: oral 0.25 g/kg/die for two weeks, 300 ppm SO2 two hours per day, total 90 hours
Procedure: This was determined by means of bronchial hypersecretion induced in rats using […]. The rats were treated by oral administration of 0.25 g/kg/die of mucolytic product for a period of two weeks, followed by inhalation of 300 ppm of SO2 for two hours per day for a total of 90 hours.

[2] = system: intrabronchial desquamation and reactive hyperplasia of the mucosa; experiment: Trophic-protective activity, nebulized CCl4; type: in vivo, rats; details: 0.25 g/kg/die orally for ten days, nebulized CCl4, 5 applications of 2 minutes/die
Procedure: This was determined in rats by the administration of 0.25 g/kg/die, orally, of the product for a period of ten days while, contemporaneously, treating with nebulized CCl4 (5 applications of 2 minutes/die).

carragenin = experiment: Antiphlogistic activity, carragenin paw test; type: in vivo, rats; details: for ED50: Rattus norvegicus, sc, 3 h
Procedure: This was determined on rats by means of the administration of the product,using an esophagus probe, one hour before making a subcutaneous injection of 0.05 ml of 1% carragenin solution in the right hind paw. After three hours, the volume of the treated paw was compared to the left hind paw, using a plethysmograph.

aerosol histaminic shock = experiment: Antibronchospasmic activity, aerosol histaminic shock; type: in vivo; details: for time for the onset of the convulsions: 0.1 g/kg i.p., histamine aerosol two hours after pretreatment
Text: […] The time was taken for the onset of the convulsions after having started administering the aerosol.

Acute toxicity = type: in vivo; details: mouse, in vivo, mice, read-out: DL50 (the source's name)
Text: (§2) The acute toxicity determined in mice is shown by the values in Table 5 below: […]

[3] = Mucolytic activity on nonpurulent excreta (in vitro, viscosity); set-up: species or system chronic bronchitis patients; details: AC and MP in tamponed solution
Procedure: as §1
Mucolytic activity on nonpurulent excreta The mucolytic activity was measured using a pool of nonpurulent excreta obtained from chronic bronchitis patients. The excreta was diluted 1:1 with a physiological solution and homogenized for three minutes - using a glass homogenizer - and then filtered through gauze and used immediately. The method used here is the same as described in the previous paragraph. In this case, however, the residual viscosity was determined after 5 minutes at 25°C (a) and after 40 minutes at 37°C (b).

rats and dogs = experiment: Subacute and chronic toxicity, gastric probe; type: in vivo; details: subacute 12 weeks in rats; chronic 6 months in rats and dogs, 0.1 - 0.5 g/kg/die; statement also covers fetal toxicity tests
Procedure: The subacute toxicity of the new product being practically the same for either case of oral or endovenous administration, the administration was only done by.means of a gastric probe.
(§3) The subacute toxicity tests were carried out for 12 weeks on the rats, the chronic toxicity on rats and dogs for 6 months (0.1 - 0.5 g/kg/die) and the fetal toxicity tests were carried out on rats (0.1 - 0.5 g/kg/die between the 6th and 16th days gravidity) and on rabbits (0.1 - 0.3 g/kg/die between the 6th and 18th days of gravidity).

rats, rabbits = experiment: Fetal toxicity; type: in vivo; details: rats 0.1 - 0.5 g/kg/die, 6th to 16th day of gravidity; rabbits 0.1 - 0.3 g/kg/die, 6th to 18th day
Procedure: as §3

rats = experiment: Tolerability at the lung level (surfactant, type II pneumocytes) in rats of the chronic toxicity test; type: in vivo; details: at termination of chronic treatment
Text: In order to evaluate the tolerability at the lung level, for the same rats undergoing the chronic toxicity test, a determination of the influence made at the surfactant level was done at the termination of the treatment. A phospholipids analysis was made, obtaining qualitative data by means of TLC chromographic analysis and quantitative data by phosphorous determination. Gas chromographic analysis was made of the fatty acid content in liposomes separated.by centrifuging from the liquid in which the excised lungs had been washed.

[4] = Pharmacokinetics: urinary elimination, titrimetric method; type: in vivo, rats; details: for dose excreted at 5 h: rat, urine, 800 mg/kg
Procedure: The pharmcokinetic tests were carried out on rats after having administered 0.8 g/kg of the new product, orally, and using an esophagus probe.
The urinary elimination tests were carried out using the ti- trimetric method. Each sample was treated with an equal volume of 20% HCL, titrating the sulfhydrylic groups with M/100 potassium bromate until the disappearance of the yellow color and calculating the amount of contained new compound (I) by means of a calibrated curve obtained by the same method. The velocity of urinary excretion is maximum within the first two hours after administration. Maximum values obtained after 5 hours amount to about 20% of the amount administered. Administering the same dose (0.8 g/kg) to a rat by means of a rectal suppository of very small dimensions, the cumulative amount in per cent eliminated in the urine within the first five hours is about 12 %.

chronic bronchitis cases = experiment: Preliminary clinical tests in chronic bronchitis cases; type: in vivo; details: for diminuition of excreta viscosity: 4th-5th day of treatment, cone and plate rotary viscosimeter
Procedure: In the clinical field, preliminary tests were performed with the new compound by giving daily doses of 0.5 g,parenterally, 0.8 g, by aerosol, and 1 g,either orally or rectally, to chronic bronchitis cases. There was a progressive diminuition of excreta viscosity at the 4th-5th day of treatment, 70% in the case of purulent expectoration and 50% in the case of muco- purulent expectoration. The values were measured by means of a cone and plate, rotary viscosimeter. There was an average increase of 20% in vital capacity, 15% in VEMS and a reduction of residual volume of about 20%.
This test proves once more that the new product is well tolerated in comparison with the other compounds having free thiolic action.

mice = experiment: Acute toxicity; type: in vivo
Text: as §2

[5] = esophagus probe one hour before 0.05 ml 1% carragenin s.c. in right hind paw, paw volume after three hours, read-out: DE50 (the source's name)
[6] = Molar Conc. 0.015, (a) after 5 minutes at 25°C
[7] = Molar Conc. 0.015, (b) after 40 minutes at 37°C
[8] = Molar Conc. 0.03, (a) after 5 minutes at 25°C
[9] = Molar Conc. 0.03, (b) after 40 minutes at 37°C
[10] = Molar Conc. 0.06, (a) after 5 minutes at 25°C
[11] = Molar Conc. 0.06, (b) after 40 minutes at 37°C
[12] = daily 0.5 g parenterally, 0.8 g aerosol or 1 g orally or rectally

CC(S)C(=O)NCC(=O)O (stereo not drawn) [MP/A, alpha-mercaptopropionylamidoacetic acid]
values obtained compared with the beta isomer (MP) (DIFCO gastric mucin; tests of Tables 1 and 2 (mucin and excreta) repeated): substantially the same as those obtained with the beta isomer (MP)
number of rats which developed bronchial obstruction, expressed as a percentage of the animals not protected [1]: 14.5%
prevention of intrabronchial desquamation and reactive hyperplasia of the mucosa [2]: ≤ 50%
ED50 (carragenin; [5]): 780 mg/kg
time for the onset of the convulsions (aerosol histaminic shock): 200 s
LD50 (Acute toxicity; ip, i.p): 1280 mg/kg
LD50 (Acute toxicity; iv, e.v.): 2240 mg/kg
LD50 (Acute toxicity; po, os): 2190 mg/kg

O=C(O)CNC(=O)CCS [MPCa, calcium salt of beta-mercapto propionylamidoacetic acid]
Residual Viscosity in % (DIFCO gastric mucin; Molar Conc. 0.015, 15000 µM): 83%
Residual Viscosity in % (DIFCO gastric mucin; Molar Conc. 0.03, 30000 µM): 75%
Residual Viscosity in % (DIFCO gastric mucin; Molar Conc. 0.06, 60000 µM): 59%
Residual Viscosity in % [3, 6]: 76%
Residual Viscosity in % [3, 7]: 71%
Residual Viscosity in % [3, 8]: 44%
Residual Viscosity in % [3, 9]: 36%
Residual Viscosity in % [3, 10]: 32%
Residual Viscosity in % [3, 11]: 24%
persistence of the -SE groups in the cells of the bronchial mucosa ([1]; D.D.D. coloration): almost complete persistence
reduction of calyciform hyperplasia ([1]; bronchial mucosa, P.A.S. coloration, less than control group): 40%
number of muciparous cells ([1]; bronchial mucosa, histological and histochemical tests): significant reduction
number of rats which developed bronchial obstruction, expressed as a percentage of the animals not protected [1]: 12.5%
prevention of intrabronchial desquamation and reactive hyperplasia of the mucosa ([2]; listed as The new compound): 65%
ED50 (carragenin; [5]): 650 mg/kg
time for the onset of the convulsions (aerosol histaminic shock): 250 s
increase of time for the onset of the convulsions (aerosol histaminic shock; 48 hours after administration): 30%
LD50 (Acute toxicity; ip, i.p): 1710 mg/kg
LD50 (Acute toxicity; iv, e.v.): 3470 mg/kg
LD50 (Acute toxicity; po, os): 3510 mg/kg
tolerability (rats and dogs): Very good tolerability
effects on the mothers and on the characteristics of the offspring (rats, rabbits): no negative effects
surfactant level (phospholipids, fatty acid content) compared with the control group (rats): No significant differences
dose excreted at 5 h ([4]; po, rats, 0.8 g/kg orally, after 5 hours, read-out: urinary elimination, % of the amount administered): ~20%
time of maximum velocity of urinary excretion ([4]; rats, 0.8 g/kg orally): two
dose excreted at 5 h ([4]; 0.8 g/kg rectal suppository, within the first five hours, read-out: cumulative amount in per cent eliminated in the urine): ~12%
bronchospasmic manifestations (chronic bronchitis cases; aerosol treatment, plethysmograph in broncholabile patients): no bronchospasmic manifestations were observed
average increase in VEMS (chronic bronchitis cases; [12]): 15%
average increase in vital capacity (chronic bronchitis cases; [12]): 20%
reduction of residual volume (chronic bronchitis cases; [12]): about 20%
diminuition of excreta viscosity (chronic bronchitis cases; muco-purulent expectoration): 50%
diminuition of excreta viscosity (chronic bronchitis cases; purulent expectoration): 70%

CC(=O)Oc1ccccc1C(=O)O [ASA, acetylsalicylic acid]
ED50 (carragenin; read-out: DE50): 100 mg/kg

NC(CSCC(=O)O)C(=O)O (stereo not drawn) [CM, S-carboxymetylcystine]
values lower than those obtained with the MP compound (DIFCO gastric mucin; tests of Tables 1 and 2 (mucin and excreta) repeated, relative to MP): 30%
number of rats which developed bronchial obstruction, expressed as a percentage of the animals not protected [1]: 29%
prevention of intrabronchial desquamation and reactive hyperplasia of the mucosa [2]: ≤ 50%
DE50 (carragenin; esophagus probe one hour before 0.05 ml 1% carragenin s.c. in right hind paw, paw volume after three hours): not measurable

O=C(O)CNC(=O)CCS [MP, beta-mercaptopropionylamidoacetic acid]
Residual Viscosity in % (DIFCO gastric mucin; Molar Conc. 0.015, 15000 µM): 88%
Residual Viscosity in % (DIFCO gastric mucin; Molar Conc. 0.03, 30000 µM): 84%
Residual Viscosity in % (DIFCO gastric mucin; Molar Conc. 0.06, 60000 µM): 65%
Residual Viscosity in % [3, 6]: 82%
Residual Viscosity in % [3, 7]: 78%
Residual Viscosity in % [3, 8]: 63%
Residual Viscosity in % [3, 9]: 56%
Residual Viscosity in % [3, 10]: 40%
Residual Viscosity in % [3, 11]: 31%
number of rats which developed bronchial obstruction, expressed as a percentage of the animals not protected [1]: 16%
prevention of intrabronchial desquamation and reactive hyperplasia of the mucosa [2]: ≤ 50%
DE50 (carragenin; esophagus probe one hour before 0.05 ml 1% carragenin s.c. in right hind paw, paw volume after three hours, 180 min): 785 mg/kg
time for the onset of the convulsions (aerosol histaminic shock): 210 s
DL50 (mice; e.v.): 3.10 g/kg
DL50 (mice; i.p): 1.54 g/kg
DL50 (mice; os): 3.20 g/kg

CC(=O)N[C@@H](CS)C(=O)O [AC, N-acetylcysteine]
Residual Viscosity in % (DIFCO gastric mucin; Molar Conc. 0.015, 15000 µM): 91%
Residual Viscosity in % (DIFCO gastric mucin; Molar Conc. 0.03, 30000 µM): 86%
Residual Viscosity in % (DIFCO gastric mucin; Molar Conc. 0.06, 60000 µM): 66%
Residual Viscosity in % [3, 6]: 87%
Residual Viscosity in % [3, 7]: 82%
Residual Viscosity in % [3, 8]: 68%
Residual Viscosity in % [3, 9]: 62%
Residual Viscosity in % [3, 10]: 40%
Residual Viscosity in % [3, 11]: 33%
number of rats which developed bronchial obstruction, expressed as a percentage of the animals not protected [1]: 16%
prevention of intrabronchial desquamation and reactive hyperplasia of the mucosa [2]: ≤ 50%
ED50 (carragenin; [5]): 830 mg/kg
time for the onset of the convulsions (aerosol histaminic shock): 210 s
LD50 (Acute toxicity; ip, i.p): 400 mg/kg
